Test results reported in US6872850B2, “Small molecule inhibitors of secretion of proteins encoded by ARE-mRNAs” (Message Pharmaceuticals, priority 2001, dated 2005).

How the values were obtained:
TNFα = test: ELISA of TNFα secreted into the media after LPS; format: cell-based; settings: 10 μM compound, 1 h, then LPS
Protocol: The ability of candidate compounds to reduce the amount of secreted TNFα was also directly tested using an ELISA assay. […] A standard ELISA analysis was used to measure the amount of TNFα secreted into the media (see, for example, Ausubel et al., supra). The effect of a candidate compound on TNFα secretion in this assay is reported in the following tables as a percentage of the amount of TNFα secreted by a control cell that was administered a DMSO vehicle control only.

3′ UTR of the TNFα gene = test: cell-based luciferase reporter assay, 5B cell line (luciferase gene with entire 3′ UTR of the TNFα gene); parameters: species or system mouse; settings: for Luciferase 5B (% of DMSO control): 1 h, then LPS, 5B cell line
Protocol: The candidate compounds were tested in a high-throughput, cell-based luciferase reporter assay. For this assay, a commercially available mouse macrophage Raw 264.7 cell line was stably transfected with a construct containing the CMV promoter operably linked to the luciferase gene which was modified using standard molecular biology techniques to contain the entire 3′ UTR of the TNFα gene. This 3′ UTR is important for the stability and translation of TNFα in cells. To control for effects of candidate compounds that are not specific for TNFα, a control cell line, called “3B,” was generated by stably transfecting the 264.7 cell line with a commercially available construct containing the luciferase gene (without the addition of the heterologous 3′ UTR of the TNFα gene) under the regulation of the CMV promoter.
[…] Then, lipopolysaccharide (LPS) was added to stimulate TNFα secretion. Luciferase activity was measured by determining the luminescence intensity due to the reaction of lucifern, ATP, Mg^2+, and molecular O2 (see, for example, Ausubel et al., supra). The luciferase activity in a cell incubated with a candidate compound was reported as a percentage of the luciferase activity for the corresponding cell incubated with DMSO vehicle only.
After correction for any effect caused by the administration of the DMSO only vehicle control, the effect of a candidate compound on luciferase activity in the 3B control cell line represents the global effect of the compound on any step required for expression or activity of luciferase protein, such as luciferase gene transcription, mRNA processing, mRNA stability, translation, protein stability, or enzymatic activity. […] In this case, the luciferase activity in the 5B cell line treated with the DMSO vehicle control is similar to the luciferase activity in the control 3B cell line treated with the candidate compound. Thus, the response of the 5B cell line (as a percent of the DMSO control) and the ratio of the luciferase activity in the 5B cell line (as a percent of the DMSO control) to the luciferase activity in the control 3B cell line (as a percent of the DMSO control) are similar. In desirable embodiments, the response of the 5B cell line and the 5B/3B ratio differ by less than 50, 40, 30, 20, 10, or 5%.

[1] = 10 μM compound, ratio of 5B to control 3B cell line

Row | Structure (SMILES) | TNFα Secretion (% of DMSO control) (TNFα) | effect on luciferase activity in the 5B cell line (luciferase assay), in words (3′ UTR of the TNFα gene) | Luciferase 5B (% of DMSO control) (3′ UTR of the TNFα gene; 10 μM compound) | Luciferase 5B/3B (% of DMSO control 5B)/(% of DMSO control 3B) (3′ UTR of the TNFα gene; [1]) | Luciferase 5B/3B (% of DMSO control 5B)/(% of DMSO control 3B) (3′ UTR of the TNFα gene; 10 μM compound (Table 11))
1 | CCCCC(NC(=O)c1cccc(C(C)=NNC(=N)N)c1)C(=O)N1CCN(C(=O)C(Cc2ccccc2)NC(=O)c2ccc(C(=NNC(=N)N)c3ccccc3)cc2)CC1 (mixture of isomers) [MES 10185] | 37 % of DMSO control | inhibited TNFα secretion | 31 % of DMSO control | 35 (% of DMSO control 5B)/(% of DMSO control 3B) | –
2 | CC(C)CC(NC(=O)c1ccc(C(=NNC(=N)N)c2ccccc2)cc1)C(=O)N1CCN(C(=O)C(Cc2cccc3ccccc23)NC(=O)c2ccc(C(=NNC(=N)N)c3ccccc3)cc2)CC1 (mixture of isomers) [MES 10191] | 22 % of DMSO control | – | 46 % of DMSO control | 86 (% of DMSO control 5B)/(% of DMSO control 3B) | –
3 | CC(C)CC(NC(=O)c1ccc(C(=NNC(=N)N)c2ccccc2)cc1)C(=O)N1CCN(C(=O)C(Cc2ccc(Cl)cc2)NC(=O)c2ccc(C(=NNC(=N)N)c3ccccc3)cc2)CC1 (mixture of isomers) [MES 10192] | 17 % of DMSO control | – | 37 % of DMSO control | 47 (% of DMSO control 5B)/(% of DMSO control 3B) | –
4 | CC(C)CC(NC(=O)c1ccc(C(=NNC(=N)N)c2ccccc2)cc1)C(=O)N1CCN(C(=O)C(Cc2ccc(-c3ccccc3)cc2)NC(=O)c2ccc(C(=NNC(=N)N)c3ccccc3)cc2)CC1 (mixture of isomers) [MES 10193] | 20 % of DMSO control | – | 23 % of DMSO control | 38 (% of DMSO control 5B)/(% of DMSO control 3B) | –
5 | CC(C)CC(NC(=O)c1ccc(C(=NNC(=N)N)c2ccccc2)cc1)C(=O)N1CCN(C(=O)C(CCc2ccccc2)NC(=O)c2ccc(C(=NNC(=N)N)c3ccccc3)cc2)CC1 (mixture of isomers) [MES 10194] | 22 % of DMSO control | – | 34 % of DMSO control | 49 (% of DMSO control 5B)/(% of DMSO control 3B) | –
6 | CC(C)CC(NC(=O)c1ccc(C(=NNC(=N)N)c2ccccc2)cc1)C(=O)N1CCN(C(=O)C(Cc2ccc3ccccc3c2)NC(=O)c2ccc(C(=NNC(=N)N)c3ccccc3)cc2)CC1 (mixture of isomers) [MES 10195] | 33 % of DMSO control | – | 36 % of DMSO control | 82 (% of DMSO control 5B)/(% of DMSO control 3B) | –
7 | CC(C)CC(NC(=O)c1ccccc1)C(=O)N1CCN(C(=O)C(Cc2ccccc2)NC(=O)c2ccc(C(=NNC(=N)N)c3ccccc3)cc2)CC1 (mixture of isomers) [MES 10222] | 49 % of DMSO control | – | 36 % of DMSO control | 49 (% of DMSO control 5B)/(% of D | –
8 | CC(C)CC(NC(=O)c1ccc(C(=NNC(=N)N)c2ccccc2)cc1)C(=O)N1CCN(C(=O)C(Cc2ccccc2)NC(=O)c2ccccc2)CC1 (mixture of isomers) [MES 10231] | 49 % of DMSO control | – | 34 % of DMSO control | 33 (% of DMSO control 5B)/(% of D | –
9 | CC(C)CC(NC(=O)c1ccc(C(=NNC(=N)N)c2ccccc2)cc1)C(=O)N1CCN(C(=O)C(Cc2ccccc2)NC(=O)c2ccc([N+](=O)[O-])cc2)CC1 (mixture of isomers) [MES 10233] | 42 % of DMSO control | – | 36 % of DMSO control | 40 (% of DMSO control 5B)/(% of D | –
10 | CC(C)CC(NC(=O)c1ccc(C(=NNC(=N)N)c2ccccc2)cc1)C(=O)N1CCN(C(=O)C(Cc2ccc(F)cc2)NC(=O)c2ccc(C(=NNC(=N)N)c3ccccc3)cc2)CC1 (mixture of isomers) [MES 10236] | 34 % of DMSO control | – | 18 % of DMSO control | 25 (% of DMSO control 5B)/(% of DMSO control 3B) | –
11 | COc1ccc(CC(NC(=O)c2ccc(C(=NNC(=N)N)c3ccccc3)cc2)C(=O)N2CCN(C(=O)C(CC(C)C)NC(=O)c3ccc(C(=NNC(=N)N)c4ccccc4)cc3)CC2)cc1 (mixture of isomers) [MES 10237] | 39 % of DMSO control | – | 20 % of DMSO control | 27 (% of DMSO control 5B)/(% of DMSO control 3B) | –
12 | CC(C)CC(NC(=O)c1ccc(C(=NNC(=N)N)c2ccccc2)cc1)C(=O)N1CCN(C(=O)C(CC2CCCCC2)NC(=O)c2ccc(C(=NNC(=N)N)c3ccccc3)cc2)CC1 (mixture of isomers) [MES 10238] | 23 % of DMSO control | – | 32 % of DMSO control | 78 (% of DMSO control 5B)/(% of DMSO control 3B) | –
13 | CC(=NN=C(N)N)c1cccc(C(=O)NC(CC(C)C)C(=O)N2CCN(C(=O)C(CC(C)C)NC(=O)c3ccc(C(=NN=C(N)N)c4ccccc4)cc3)CC2)c1 (mixture of isomers) [MES 11408] | – | decrease TNFα secretion | 59 % of DMSO control | 54 (% of DMSO control 5B)/(% of D | –
14 | CC(=NN=C(N)N)c1cccc(C(=O)NC(CC(C)C)C(=O)NCCCNC(=O)C(C)NC(=O)c2ccc(C(=NN=C(N)N)c3ccccc3)cc2)c1 (mixture of isomers) [MES 11411] | – | decrease TNFα secretion | 65 % of DMSO control | 71 (% of DMSO control 5B)/(% of D | –
15 | CC(=NNC(=N)N)c1cccc(C(=O)NC(C)C(=O)N2CCN(C(=O)C(Cc3ccccc3)NC(=O)c3ccc(C(=NNC(=N)N)c4ccccc4)cc3)CC2)c1 (mixture of isomers) [MES 11465] | – | decrease TNFα secretion | 72 % of DMSO control | 71 (% of DMSO control 5B)/(% of D | –
16 | C/C(=N\N=C(N)N)c1cccc(C(=O)NCCNC(=O)[C@H](Cc2ccccc2)NC(=O)c2ccc(C(=O)c3ccccc3)cc2)c1.O=C(O)C(F)(F)F [MES 10093, (4-E)-Guanylhydrazone of 1-[(S)-N-(4-benzoylbenzoyl)-2-amino-3-phenylpropanoyl]-4-(3-acetylbenzoyl)-1,4-diazabutane trifluoroacetate] | – | – | – | – | 47 (% of DMSO control 5B)/(% of D
17 | O=C(N[C@@H](Cc1ccccc1)C(=O)N1CCN(C(=O)CCCC(=O)N2CCN(c3ccccc3)CC2)CC1)c1ccc(C(=O)c2ccccc2)cc1 [MES 10246] | – | – | 46 % of DMSO control | 74 (% of DMSO control 5B)/(% of D | –
18 | CN1CCN(C(=O)CCC(=O)N2CCN(C(=O)[C@H](Cc3ccccc3)NC(=O)c3ccc(C(=O)c4ccccc4)cc3)CC2)CC1 [MES 10301] | – | – | 76 % of DMSO control | 105 (% of DMSO control 5B)/(% of D | –
19 | CC(NC(=O)c1ccc(C(=O)c2ccccc2)cc1)C(=O)N1CCN(C(=O)CCC(=O)N2CCN(c3ccccc3)CC2)CC1 (stereo not shown) [MES 10304] | – | – | 49 % of DMSO control | 64 (% of DMSO control 5B)/(% of D | –
20 | CC(=O)N[C@@H](Cc1ccccc1)C(=O)N1CCN(C(=O)[C@H](CC(C)C)NC(=O)c2cccc(/C(C)=N/NC(=N)N)c2)CC1 [MES 10306] | – | – | 85 % of DMSO control | 125 (% of DMSO control 5B)/(% of D | –
